Measurements: patent US11160766B2, “Peritoneal therapeutic fluid” (OPTERION Health AG, priority 2015, dated 2021)
Where “and” joins values, the source holds several entries; their conditions need not be identical. Equal entries are not always repeated. Each block holds one compound with its values, some of them ahead of it.

Experiments:
[1] = system: Human peritoneal mesothelial cells (HPMC); test: CTG assay, intra-cellular ATP level in HPMC exposed to PD solution; type: cell-based; settings: Example 4; PD-Solution #4; 72 hours
Method: (§1) Human peritoneal mesothelial cells (HPMC) were purchased from Zen Bio Inc. and cultured in cell culture flasks using suppliers media. Near confluent HPMC were harvested by trypsinization, seeded into collagen-coated 96-well tissue culture plates (Corning) and allowed to adhere overnight. The medium was changed to twice diluted with dialysis solution for 48 up to 72 hours.
In the case of Piceid, the intra-cellular ATP level was determined with the CTG assay. For this, media was completely removed from all wells by aspiration, 60 μl of CTG reagent was added to each well, and incubated for 5 min at RT while softly shaking (50 rpm). Using a Victor3 1420 Multilabel Counter, the emitted luminescence produced in the CTG assay was measured. For the dose-response relationship, absolute luminescence (background subtracted) was related to the negative (medium) control and relative viability values were plotted against the test item concentrations. For the dose-response relationship, absolute luminescence (background subtracted) was related to the negative (medium) control and relative viability values in presence of BCA were plotted against the BCA concentrations.
partially reestablished resazurin to reorufin conversion, or partly re-established intracellular ATP-level, which is interpreted as a result of a decreased cytotoxicity, due to the application of the tested BCA. […]

[2] = system: Human peritoneal mesothelial cells (HPMC); test: resazurin cell viability assay on HPMC exposed to PD solutions; type: cell-based; settings: for effect on cell viability in control medium: Medium control without cytotoxic stress, until Cmax (500 μM); for effect reducing cyto-toxicity of all three tested peritoneal dialysis solutions: Example 2 conclusion, PD solutions #1 to #3; for cell viability on Glucose based and on Icodextrin based PD-Solutions: summary of examples 1 to 4; for type of dialysis solution mainly improved: summary of example 4; for improvement of viability of HPMC cells (resazurin to resorufin conversion): Example 3, added 5 minutes in advance, triplicate
Method: as §1
Cell viability was established applying the promega resazurin assay, following the suppliers protocol. Living cells are metabolically active and are able to reduce the non-fluorescent dye resazurin to the strongly-fluorescent dye resorufin. The fluorescence output is proportional to the number of viable cells over a wide concentration range. This also allows the calculation of the proliferation rate for cells capable of consecutive cell division. […] For the dose-response relationship, relative viability was plotted against the test item concentrations.
All assays were conducted in a duplex format using the same cell culture.
Addition of selected BCAs of this invention partially reestablished reszurin to reorufin conversion, which is interpreted as a result of a decreased cytotoxicity, due to the application of the tested BCAs. Compounds were added at 9 dilutions (Cmax=500 μM) together with tested PD solutions or Medium control. Incubation was 48 hours.
Addition of selected BCA resveratrol partially reestablished resazurin to reorufin conversion, in a triplicate assay, which is interpreted as a result of a decreased cytotoxicity, due to the application of the tested BCA. In this series, Resveratrol was added 5 minutes in advance to application of test-solutions, at 9 dilutions (Cmax=500 μM). Incubation was 72 hours.
partially reestablished resazurin to reorufin conversion, or partly re-established intracellular ATP-level, which is interpreted as a result of a decreased cytotoxicity, due to the application of the tested BCA. Test items were tested at 3 replicates per concentration. All assays were conducted in a duplex format using the same cell culture. Incubation was 72 hours.

VEGF = test: peritoneal tissue VEGF (ELISA) in rats after chronic peritoneal dialysis; type: in vivo, Sprague-Dawley rats; settings: for VEGF concentration (pg/mL) in prot. prep., single animals: peritoneal tissue
Method: Animal Studies have been carried out as described in Lee et al. 2012: Peritoneal access ports were inserted in male Sprague-Dawley rats. After one week, rats started to received peritoneal treatment: 10 rats receive once daily 20 ml of Sol #4, 10 rats received 20 ml of Sol #4 with addition of selected BCA (resveratrol), during 2 hour infusions. After 2 to 4 weeks, the abdomen was opened, the peritoneum was recovered and submitted to protein extraction. Tissue VEGF concentration was established by ELISA (Abcam Rat VEGF ELISA Kit, ab100787) on obtained protein preparations (pg/ml).

[3] = concentration (solubility) after stirring at room temperature; type: physicochemical
Method: Concentrations of BCA in the present invention are preferably measured after 1 hour stirring at room temperature (which is preferably 20-23° C., more preferably 22° C.), particularly if the BCA is a polyphenolic compound, a metabolite of a polyphenolic compound which is obtained by metabolization in the human or animal body, a salt of a polyphenolic compound, a glycoside of a polyphenolic compound, or derivative of these compounds. So, concentrations of said compound correspond to measured solubility after 1 hour stirring at room temperature. Concentration is measured in a PTF of the invention. So, BCA can be dissolved in water. Other ingredients of a PTF, which are mentioned in this description, are preferably present. If not specifically indicated, or if not specifically indicated otherwise, the time of stirring is one hour. In some cases, other stirring times are indicated, such as 12 hours.

[4] = Example 2, PD-Solution #1, 48 hours, 9 dilutions, Cmax=500 μM
[5] = Example 2, PD-Solution #2, 48 hours, 9 dilutions, Cmax=500 μM
[6] = Example 4, PD-Solution #3, 72 hours, 3 replicates per concentration
[7] = Example 4, PD-Solution #4, 72 hours, 3 replicates per concentration

SMILES: OC[C@H]1O[C@@H](Oc2cc(O)cc(/C=C/c3ccc(O)cc3)c2)[C@H](O)[C@@H](O)[C@@H]1O [Piceid, resveratrol-3-O-β-mono-D-glucoside]
improvement of viability of HPMC cells measured by ATP-level re-establishment [1]: 51%
effect on cell viability in control medium ([2]; Example 2, 48 hours): no significant effect
improvement of cell viability of HPMC cells (resazurin to resorufin conversion) [2, 4]: minor improvements
improvement of cell viability of HPMC cells (resazurin to resorufin conversion) [2, 5]: minor improvements
effect reducing cyto-toxicity of all three tested peritoneal dialysis solutions ([2]; 48 hours): minor effect
improvement of cell viability of HPMC cells (resazurin to resorufin conversion) [2, 6]: up to 32%
improvement of cell viability of HPMC cells (resazurin to resorufin conversion) [2, 7]: up to 17%
cell viability on Glucose based and on Icodextrin based PD-Solutions [2]: increased cell viability

SMILES: COc1cc(/C=C/c2ccc(O)cc2)cc(OC)c1 [Pterostilbene]
improvement of cell viability of HPMC cells (resazurin to resorufin conversion) [2, 6]: 183%
improvement of cell viability of HPMC cells (resazurin to resorufin conversion) [2, 7]: 118%

SMILES: Oc1cc(O)cc(/C=C/c2ccc(O)c(O)c2)c1 [Piceatannol]
improvement of cell viability of HPMC cells (resazurin to resorufin conversion) [2, 6]: up to 44%
improvement of cell viability of HPMC cells (resazurin to resorufin conversion) [2, 7]: up to 40%

SMILES: O=c1cc(-c2ccc(O)c(O)c2)oc2cc(O)cc(O)c12 [Luteolin]
improvement of cell viability of HPMC cells (resazurin to resorufin conversion) [2, 6]: up to 56%
improvement of cell viability of HPMC cells (resazurin to resorufin conversion) [2, 7]: up to 21%
type of dialysis solution mainly improved [2]: mainly improved Icodextrin based dialysis solutions

concentration after 12 hours stirring [3]: above 24 mg/L
SMILES: Oc1ccc(/C=C/c2cc(O)cc(O)c2)cc1 [Resveratrol, trans-3,5,4′-trihydroxystilbene]
VEGF concentration (pg/mL) in prot. prep., Average (VEGF; Sol #4 + 40 μM Resveratrol, 2 and 4 weeks combined, 10 rats): 60.94 pg/mL
VEGF concentration (pg/mL) in prot. prep., single animals (VEGF; Sol #4 + 40 μM Resveratrol, 2 weeks treatment): 50.21 pg/mL and 39.99 pg/mL and 70.88 pg/mL and 77.84 pg/mL and 60.12 pg/mL
VEGF concentration (pg/mL) in prot. prep., single animals (VEGF; Sol #4 + 40 μM Resveratrol, 4 weeks treatment): 62.02 pg/mL and 63.71 pg/mL and 57.91 pg/mL and 68.45 pg/mL and 58.23 pg/mL
expression of VEGF in the peritoneum of standard PDF treated rats (VEGF; addition to Sol #4, 2 to 4 weeks peritoneal dialysis): decreases expression of VEGF
effect on cell viability in control medium ([2]; Example 2, 48 hours): no significant effect
improvement of cell viability of HPMC cells (resazurin to resorufin conversion) [2, 4]: up to 20%
improvement of cell viability of HPMC cells (resazurin to resorufin conversion) [2, 5]: up to 40%
improvement of cell viability of HPMC cells (resazurin to resorufin conversion) ([2]; Example 2, PD-Solution #3, 48 hours, 9 dilutions, Cmax=500 μM): up to 40%
effect reducing cyto-toxicity of all three tested peritoneal dialysis solutions ([2]; 48 hours): strong effect
improvement of viability of HPMC cells (resazurin to resorufin conversion) ([2]; PD-Solution #1, 72 hours, Cmax=500 μM): up to 84%
improvement of viability of HPMC cells (resazurin to resorufin conversion) ([2]; PD-Solution #2, 72 hours, Cmax=500 μM): up to 28%
improvement of viability of HPMC cells (resazurin to resorufin conversion) ([2]; PD-Solution #3, 72 hours, Cmax=500 μM): up to 105%
cell viability on Glucose based and on Icodextrin based PD-Solutions [2]: increased cell viability

SMILES: O=C(O)/C=C/c1ccc(O)c(O)c1 [Cafeic Acid, caffeic acid]
improvement of cell viability of HPMC cells (resazurin to resorufin conversion) [2, 6]: up to 32%
improvement of cell viability of HPMC cells (resazurin to resorufin conversion) [2, 7]: minor
type of dialysis solution mainly improved [2]: mainly improved Icodextrin based dialysis solutions

SMILES: Oc1cc(O)c2cc(O)c(-c3cc(O)c(O)c(O)c3)[o+]c2c1 [Delphinidin]
improvement of cell viability of HPMC cells (resazurin to resorufin conversion) [2, 6]: up to 57%
